Source: patent US20250312433A1, “Process for Producing of Vaccine Formulations With Preservatives” (priority 2022, published 2025)

What was measured:
[1] = Dissolution time of 2-PE in Succinate Buffered Saline (visual observation); format: physicochemical; conditions: 300 rpm, about 20° C.; for 2-PE bulk dissolution Time: all dissolved besides up to approximately 5 small particles
Experimental: (§1) The objective of this study was to evaluate the dissolution time and solubility of 2-phenoxyethanol (2-PE). 2-PE dissolution and concentration were evaluated at the following concentrations in Succinate Buffered Saline (SBS) (5 mM succinate, 150 mM NaCl, pH 5.8); 11 g/L, 16.5 g/L, and 20 g/L.
(§2) Appropriate amount of 2-PE was weighed out in 400 ml beaker and appropriate amount of succinate buffered saline was added. Agitation speed was 300 rpm and solution temperature about 20° C. The time for complete dissolution based on visual observation was recorded. 2-PE concentration was measured by RP-HPLC.

[2] = 2-PE concentration / solubility in Succinate Buffered Saline by RP-HPLC; format: physicochemical; conditions: for Measured 2-PE concentration: RP-HPLC
Experimental: as §1, §2

Compound: OCCOc1ccccc1 [2-PE, 2-phenoxyethanol]
- 2-PE bulk dissolution Time ([1]; 11 mg/mL 2-PE in SBS (5 mM succinate, 150 mM NaCl, pH 5.8)): 7 min
- 2-PE bulk dissolution Time ([1]; 16.5 mg/mL 2-PE in SBS): 9 min
- 2-PE bulk dissolution Time ([1]; 20 mg/mL 2-PE in SBS): 15 min
- 2-PE complete dissolution time ([1]; 20 mg/mL 2-PE in SBS, all small particles dissolved): 35 min
- measured 2-PE concentration below the target concentration ([2]; all concentrations (11, 16.5, 20 mg/mL) in SBS): approximately 5%
- solubility ([2]; aqueous buffer, thermodynamic from solid, succinate-buffered saline (pH 5.8) at 20° C.): ≥ 19.1 mg/mL
- Percent Difference (measured − target)/target × 100 ([2]; target 11.0 mg/mL in SBS): −4.5%
- Measured 2-PE concentration ([2]; target 11.0 mg/mL in SBS): 10.5 mg/mL
- Percent Difference (measured − target)/target × 100 ([2]; target 16.5 mg/mL in SBS): −5.5%
- Measured 2-PE concentration ([2]; target 16.5 mg/mL in SBS): 15.6 mg/mL
- Percent Difference (measured − target)/target × 100 ([2]; target 20.0 mg/mL in SBS): −4.5%
- Measured 2-PE concentration ([2]; target 20.0 mg/mL in SBS): 19.1 mg/mL
